Experimental data: patent US10221186B2, “Spirocyclic heterocyclic compounds useful as HIV integrase inhibitors” (priority 2014, dated 2019)
Read-outs that look alike come from different tables or passages of the source.

Test system: HIV-1 (NL4-3 strain)
Assay: Assay for inhibition of HIV replication (VIKING) in infected MT4-GFP cells
Format: cell-based
Conditions: infected cells at 48 h / 24 h
Method: MT4-GFP cells (250,000 cells/ml) were bulk-infected with HIV-1 (NL4-3 strain) at low multiplicity of infection (MOI) in RPMI+10% FBS for 24 hours. […] Test compounds were serial-diluted in DMSO on ECHO. The infected MT4-GFP cells were added to a 384-well poly-D-lysine coated black plate with clear bottom in which the diluted test compounds were placed. The cells were seeded at 8,000 cells per well and the final DMSO concentration was 0.4%. The infected cells (Green GFP cells) were quantified at both 24 and 48 hours post incubation using Acumen eX3. Viral reproductive ratio (R0) was determined using the number of infected cells at 48 hours divided by the number of infected cells at 24 hours. Percent viral growth inhibition was calculated by [1−(R−Rtripledrug)/(RDMSO−Rtripledrug)]*100.

[1] = Human immunodeficiency virus 1, NL43, MT4-GFP cells infected with HIV-1 NL4-3, 0% NHS (normal human serum), read-out: VIKING IP50 (nM) with 0% NHS
[2] = Human immunodeficiency virus 1, NL43, MT4-GFP cells infected with HIV-1 NL4-3, 100% NHS (normal human serum), read-out: VIKING IP50 (nM) with 100% NHS
[3] = MT4-GFP cells infected with HIV-1 NL4-3, 100% NHS (normal human serum), read-out: VIKING IP50 (nM) with 100% NHS
[4] = MT4-GFP cells infected with HIV-1 NL4-3, 0% NHS (normal human serum), read-out: VIKING IP50 (nM) with 0% NHS

For `CN1CC2(CCOCC2)n2cc(C(=O)NCc3ccc(F)cc3F)c(=O)c(O)c2C1=O` [Compound 7], the IC50 [1] was 6 nM and the IC50 [2] was 113 nM.
Compound `COCCN1CC2(CCOC2)n2cc(C(=O)NCc3cccc(Cl)c3F)c(=O)c(O)c2C1=O` (stereo not shown) [Compound 29] has an IC50 [1] of 1 nM and an IC50 [3] of 1140 nM.
Compound `COCCN1CC2(CCOC2)n2cc(C(=O)NCc3ccc(F)cc3F)c(=O)c(O)c2C1=O` (stereo not shown) [Compound 21] has an IC50 [4] of 3 nM and an IC50 [3] of 129 nM.
For `COCCN1CC2(CCOC2)n2cc(C(=O)NCc3ccc(F)cc3F)c(=O)c(O)c2C1=O` (stereo not shown) [Compound 20], the IC50 [1] was 2 nM and the IC50 [3] was 337 nM.
Work on `COCCN1CC2(CCOC2)n2cc(-c3nnc(Cc4ccc(F)cc4F)s3)c(=O)c(O)c2C1=O` (stereo not shown) [Compound 40] yielded an IC50 [4] of 4 nM and an IC50 [3] of 691 nM.
With `CCOCCN1CC2(CCOC2)n2cc(C(=O)NCc3ccc(F)cc3F)c(=O)c(O)c2C1=O` (stereo not shown) [Compound 23] the IC50 [4] was 1 nM and the IC50 [3] was 27 nM.
Work on `CN1CC2(CCCOC2)n2cc(C(=O)NCc3ccc(F)cc3F)c(=O)c(O)c2C1=O` (stereo not shown) [Compound 10] yielded an IC50 [1] of 3 nM and an IC50 [3] of 75 nM.
For `CN1CC2(CCOC2)n2cc(C(=O)NCc3ccc(F)cc3F)c(=O)c(O)c2C1=O` (stereo not shown) [Compound 15], the IC50 [4] was 4 nM and the IC50 [3] was 108 nM.
With `COCN1CC2(CCOC2)n2cc(C(=O)NCc3ccc(F)cc3F)c(=O)c(O)c2C1=O` (stereo not shown) [Compound 19] the IC50 [4] was 2 nM and the IC50 [3] was 3420 nM.
Compound `CCN1C(=O)c2c(O)c(=O)c(C(=O)NCc3ccc(F)cc3F)cn2C2(CCOC2)C1OC` (single isomer, unassigned) [Compound 36] has an IC50 [4] of 3 nM and an IC50 [3] of 114 nM.
`CC(C)OC(=O)OCOP(=O)(CCN1C[C@]2(CCOC2)n2cc(C(=O)NCc3ccc(F)cc3F)c(=O)c(O)c2C1=O)OCOC(=O)OC(C)C` (single isomer, unassigned) [Compound 58] was tested, and the IC50 [1] was 7 nM and the IC50 [2] was 530 nM.
With `O=C(NCc1ccc(F)cc1F)c1cn2c(c(O)c1=O)C(=O)N(CCO)CC21CCOC1` (stereo not shown) [Compound 24] the IC50 [1] was 35 nM and the IC50 [2] was > 8000 nM.
For `CCN1CC2(CCOC2)n2cc(C(=O)NCc3ccc(F)cc3F)c(=O)c(O)c2C1=O` (stereo not shown) [Compound 16], the IC50 [1] was 2 nM and the IC50 [2] was 4530 nM.
With `CN1CC2(CCOC2)n2cc(C(=O)NCc3ccc(F)cc3F)c(=O)c(O)c2C1=O` (stereo not shown) [Compound 14] the IC50 [1] was 3 nM and the IC50 [2] was 209 nM.
Compound `CN(C)N1CC2(COC2)n2cc(C(=O)NCc3ccc(F)cc3F)c(=O)c(O)c2C1=O` [Compound 1] has an IC50 [1] of 4 nM and an IC50 [2] of 1280 nM.
For `CCN1C(=O)c2c(O)c(=O)c(C(=O)NCc3ccc(F)cc3F)cn2C2(CCOC2)C1OC` (single isomer, unassigned) [Compound 37], the IC50 [4] was 3 nM and the IC50 [3] was 663 nM.
`COCCN1CC2(CCOCC2)n2cc(C(=O)NCc3ccc(F)cc3F)c(=O)c(O)c2C1=O` [Compound 6] gave an IC50 [1] of 6 nM and an IC50 [2] of 646 nM.
In the case of `CN1CC2(COC2)n2cc(C(=O)NCc3ccc(F)cc3F)c(=O)c(O)c2C1=O` [Compound 4], the IC50 [1] is reported as 2 nM and the IC50 [2] is reported as 334 nM.
In the case of `CC(=O)N1CCC2(CN(C)C(=O)c3c(O)c(=O)c(C(=O)NCc4ccc(F)cc4F)cn32)C1` (single isomer, unassigned) [Compound 45], the IC50 [2] is reported as 297 nM and the IC50 [4] is reported as 69 nM.
Compound `CN1CC2(CCNC2)n2cc(C(=O)NCc3ccc(F)cc3F)c(=O)c(O)c2C1=O` (single isomer, unassigned) [Compound 51] has an IC50 [4] of 3 nM and an IC50 [3] of 68 nM.
For `COC1N(N(C)C)C(=O)c2c(O)c(=O)c(C(=O)NCc3ccc(F)cc3F)cn2C12COC2` (stereo not shown) [Compound 38], the IC50 [1] was 7 nM and the IC50 [2] was 235 nM.
`CCN1C(=O)c2c(O)c(=O)c(C(=O)NCc3ccc(F)cc3F)cn2C2(COC2)C1OC` (single isomer, unassigned) [Compound 34] was tested, and the IC50 [4] was 5 nM and the IC50 [3] was 4920 nM.
`COCCN1CC2(CCOC2)n2cc(-c3nnc(Cc4ccc(F)cc4F)s3)c(=O)c(O)c2C1=O` (stereo not shown) [Compound 39] was tested, and the IC50 [1] was 2 nM and the IC50 [3] was 291 nM.
`CC(=O)N1CCC2(CN(C)C(=O)c3c(O)c(=O)c(C(=O)NCc4ccc(F)cc4F)cn32)C1` (single isomer, unassigned) [Compound 46] was tested, and the IC50 [4] was 19 nM and the IC50 [3] was 259 nM.
For `CCOP(=O)(CCN1CC2(CCOC2)n2cc(C(=O)NCc3ccc(F)cc3F)c(=O)c(O)c2C1=O)OCC` (stereo not shown) [Compound 31], the IC50 [1] was 17 nM and the IC50 [2] was 232 nM.
For `CCN1CC2(COC2)n2cc(C(=O)NCc3ccc(F)cc3F)c(=O)c(O)c2C1=O` [Compound 5], the IC50 [1] was 4 nM and the IC50 [2] was > 8400 nM.
`CN1CC2(CCN(S(C)(=O)=O)C2)n2cc(C(=O)NCc3ccc(F)cc3F)c(=O)c(O)c2C1=O` (single isomer, unassigned) [Compound 47] showed an IC50 [1] of 6 nM and an IC50 [2] of 78 nM.
`O=C(NCc1ccc(F)cc1F)c1cn2c(c(O)c1=O)C(=O)N(CCP(=O)(O)O)CC21CCOC1` (stereo not shown) [Compound 32] was tested, and the IC50 [1] was 293 nM and the IC50 [2] was 873 nM.
In the case of `CN1CC2(CCNC2)n2cc(C(=O)NCc3ccc(F)cc3F)c(=O)c(O)c2C1=O` (single isomer, unassigned) [Compound 52], the IC50 [4] is reported as 18 nM and the IC50 [3] is reported as 210 nM.
Compound `COCCN1CC2(CCCOC2)n2cc(C(=O)NCc3ccc(F)cc3F)c(=O)c(O)c2C1=O` (single isomer, unassigned) [Compound 8] has an IC50 [1] of 2 nM and an IC50 [3] of 260 nM.
`CCN1C(=O)c2c(O)c(=O)c(C(=O)NCc3ccc(F)cc3F)cn2C2(COC2)C1OC` (single isomer, unassigned) [Compound 33] showed an IC50 [1] of 3 nM and an IC50 [3] of 210 nM.
With `CN(C)N1CC2(CCOCC2)n2cc(C(=O)NCc3ccc(F)cc3F)c(=O)c(O)c2C1=O` [Compound 2] the IC50 [1] was 19 nM and the IC50 [2] was 1510 nM.
Compound `CCN1C(=O)c2c(O)c(=O)c(C(=O)NCc3ccc(F)cc3F)cn2C2(CCOC2)C1OC` (single isomer, unassigned) [Compound 35] has an IC50 [4] of 1 nM and an IC50 [3] of 88 nM.
In the case of `CN1CCC2(C1)CN(C)C(=O)c1c(O)c(=O)c(C(=O)NCc3ccc(F)cc3F)cn12` (single isomer, unassigned) [Compound 50], the IC50 [4] is reported as 1 nM and the IC50 [3] is reported as 74 nM.
For `COCCCN1CC2(CCOC2)n2cc(C(=O)NCc3ccc(F)cc3F)c(=O)c(O)c2C1=O` (single isomer, unassigned) [Compound 13], the IC50 [4] was 2 nM and the IC50 [3] was 36 nM.
For `COCCN1CC2(CCOC2)n2cc(C(=O)NCc3cccc(Cl)c3F)c(=O)c(O)c2C1=O` (stereo not shown) [Compound 30], the IC50 [4] was 1 nM and the IC50 [3] was 417 nM.
For `CN1CC2(CCN(S(C)(=O)=O)C2)n2cc(C(=O)NCc3ccc(F)cc3F)c(=O)c(O)c2C1=O` (single isomer, unassigned) [Compound 48], the IC50 [4] was 10 nM and the IC50 [3] was 112 nM.
`COCN1CC2(CCOC2)n2cc(C(=O)NCc3ccc(F)cc3F)c(=O)c(O)c2C1=O` (stereo not shown) [Compound 18] was tested, and the IC50 [1] was 3 nM and the IC50 [3] was > 8400 nM.
In the case of `COCCN1CC2(CCOC2)n2cc(C(=O)NCc3ccc(F)c(Cl)c3)c(=O)c(O)c2C1=O` (stereo not shown) [Compound 27], the IC50 [1] is reported as 3 nM and the IC50 [2] is reported as 3660 nM.
`COCCN1CC2(CCOC2)n2cc(C(=O)NCc3ccc(F)c(Cl)c3F)c(=O)c(O)c2C1=O` (stereo not shown) [Compound 25] gave an IC50 [1] of 1 nM and an IC50 [2] of 1730 nM.
`CN1CCC2(C1)CN(C)C(=O)c1c(O)c(=O)c(C(=O)NCc3ccc(F)cc3F)cn12` (single isomer, unassigned) [Compound 49] gave an IC50 [1] of 2 nM and an IC50 [2] of 90 nM.
Compound `CN1CC2(CCCOC2)n2cc(C(=O)NCc3ccc(F)cc3F)c(=O)c(O)c2C1=O` (stereo not shown) [Compound 11] has an IC50 [4] of 3 nM and an IC50 [3] of 442 nM.
Work on `CCOCCN1CC2(CCOC2)n2cc(C(=O)NCc3ccc(F)cc3F)c(=O)c(O)c2C1=O` (stereo not shown) [Compound 22] yielded an IC50 [1] of 2 nM and an IC50 [2] of 40 nM.
In the case of `COCCCN1CC2(CCOC2)n2cc(C(=O)NCc3ccc(F)cc3F)c(=O)c(O)c2C1=O` (single isomer, unassigned) [Compound 12], the IC50 [2] is reported as 47 nM and the IC50 [4] is reported as 5 nM.
`COCCN1CC2(COC2)n2cc(C(=O)NCc3ccc(F)cc3F)c(=O)c(O)c2C1=O` [Compound 3] gave an IC50 [1] of 3 nM and an IC50 [2] of 292 nM.
With `COCCN1CC2(CCCOC2)n2cc(C(=O)NCc3ccc(F)cc3F)c(=O)c(O)c2C1=O` (single isomer, unassigned) [Compound 9] the IC50 [4] was 2 nM and the IC50 [3] was 814 nM.
`CCN1CC2(CCOC2)n2cc(C(=O)NCc3ccc(F)cc3F)c(=O)c(O)c2C1=O` (stereo not shown) [Compound 17] was tested, and the IC50 [4] was 2 nM and the IC50 [3] was > 8400 nM.
Compound `CC(C)OC(=O)OCOP(=O)(CCN1C[C@@]2(CCOC2)n2cc(C(=O)NCc3ccc(F)cc3F)c(=O)c(O)c2C1=O)OCOC(=O)OC(C)C` (single isomer, unassigned) [Compound 54] has an IC50 [1] of 5 nM and an IC50 [2] of 1600 nM.
In the case of `COCCN1CC2(CCOC2)n2cc(C(=O)NCc3ccc(F)c(Cl)c3F)c(=O)c(O)c2C1=O` (stereo not shown) [Compound 26], the IC50 [4] is reported as 1 nM and the IC50 [3] is reported as 1140 nM.
With `COCCN1CC2(CCOC2)n2cc(C(=O)NCc3ccc(F)c(Cl)c3)c(=O)c(O)c2C1=O` (stereo not shown) [Compound 28] the IC50 [4] was 2 nM and the IC50 [3] was 2770 nM.
